Measurements reported in US11286258B2, “Nature-inspired anticancer and antibacterial motifs and pharmaceutical composition thereof” (University of Sharjah, priority 2020, dated 2022).
Values after ≈ are worked out from the molar mass of the structure shown. Where two headings read alike, the source gives them in different places. Marks after values point to notes of the source that are not given here.

Columns and labels:
E. coli ATCC25922 = test: MIC broth microdilution, E. coli ATCC25922; type: cell-based, Escherichia coli; conditions: not MDR, overnight incubation; for MIC: Escherichia coli, ATCC25922
Description: (§1) Antibacterial activity: The compounds were tested for the minimum inhibitory concentrations (MIC), which is the lowest concentration of a chemical required to inhibit visible microbial growth following overnight incubation. MIC values were determined using broth microdilution method according to the Clinical and Laboratory Standards Institute guidelines (CLSI, 2015, M07-A10). Mueller-Hinton broth was used as a culture medium in all the experiments. Exponentially growing bacterial cells were prepared in Mueller-Hinton broth at a concentration of approximately 5×10^5 CFU/mL. Two-fold serial dilutions of the test compound (8 concentrations ranged between 100-0.78 μg/mL) were tested. […] In each experiment, solvent (DMSO) was used as a negative control, un-treated control (composing of bacteria in Mueller-Hinton broth) was used as a growth control, blank (culture media alone) was used as sterility control. The 96-well microplate with the test compounds was incubated overnight at 37° C. Turbidity in wells indicated bacterial growth.
(§2) The compounds were tested on six MDR Gram-positive bacteria including three clinical isolates of methicillin-resistant Staphylococcus aureus (MRSA-1, MRSA-2 and MRSA-3) and three reference MRSA strains (ATCC33591, ATCC33592 and ATCC700699). They were also tested on three MDR Gram-negative bacteria including New Delhi metallo-beta-lactamase (NDM-1) positive, carbapenem-resistant E. coli (ATCC BAA2469), extended-spectrum beta-lactamase (ESBL) producing, colistin-resistant E. coli (CDC-AR-0346) and carbapenem-resistant Acinetobacter baumannii (ATCC BAA1605), in addition to two non-MDR bacteria from the same species, namely E. coli (ATCC 25922) Acinetobacter baumannii (ATCC 19606).

[1] = system: Acinetobacter baumannii ATCC BAA1605 (carbapenem-resistant); test: MIC broth microdilution, A. baumannii ATCC BAA1605; type: cell-based; conditions: overnight incubation; for MIC: Acinetobacter baumannii, ATCCBAA1605, MDR; for MIC Acinetobacter baumannii ATCC BAA1605 (carbapenem-resistant): MDR
Description: as §1, §2

[2] = system: Acinetobacter baumannii ATCC 19606; test: MIC broth microdilution, A. baumannii ATCC 19606; type: cell-based; conditions: not MDR, overnight incubation; for MIC: Acinetobacter baumannii, ATCC19606
Description: as §1, §2

[3] = system: E. coli ATCC BAA2469 (NDM-1 carbapenem-resistant); test: MIC broth microdilution, E. coli ATCC BAA2469; type: cell-based, Escherichia coli; conditions: overnight incubation; for MIC: Escherichia coli, ATCCBAA2469, MDR; for MIC E. coli ATCC BAA2469 (NDM-1 carbapenem-resistant): MDR
Description: as §1, §2

[4] = system: E. coli CDC-AR-0346 (ESBL, colistin resistant); test: MIC broth microdilution, E. coli CDC-AR-0346; type: cell-based, Escherichia coli; conditions: MDR, overnight incubation; for MIC: Escherichia coli
Description: as §1, §2

HELA = test: MTT cell viability, HELA; type: cell-based; conditions: Homo sapiens, cervical cancer, 48 h of drug treatment, average of three experiments
Source text: (§3) Cell culture: In this study five different cancer cell lines were used, human lung carcinoma (A549), human breast adenoma (MCF-7), Cervical carcinoma (Hela), hepatocellular carcinoma (Hep3B), and colorectal adenocarcinoma (HCT-116). These cells were obtained from the European Collection of Cell Cultures (ECACC, UK). Hep3B cells were maintained in Dulbecco's Modified Eagle Medium (DMEM: Sigma-Aldrich), and the four other cell lines were maintained in Roswell Park Memorial Institute medium (RPMI, Sigma-Aldrich, St. Louis, Mo., USA), which was supplemented with 10% fetal bovine serum (FBS, Sigma-Aldrich) and 1% penicillin/streptomycin (Sigma-Aldrich). Cells were incubated all the time at 37° C. in a humidified atmosphere of 5% CO2. Cell viability studies: Cell viability was assessed using the MTT assay as described before. In brief, all cancer cell lines were seeded at a density of 4×10^4/well in 96 well flat-bottom plates. After 24 h from seeding, cells were treated with the synthesized compounds and left for an incubation period of 48 h. Upon reaching the indicated time point, the media was removed and replaced with 200 μL fresh media containing 0.5 mg/mL of MTT tetrazolium dye (Sigma-Aldrich). Cells were then incubated with MTT solution for 2 h at 37° C. The resultant formazan crystals were dissolved in 200 μl/well of DMSO and absorbance was measured at 570 nm using a microplate reader (Thermo Scientific).

MCF-7 = test: MTT cell viability, MCF-7; type: cell-based; conditions: Homo sapiens, MCF7; breast cancer; 48 h of drug treatment; average of three experiments
Source text: as §3

HEP3B = test: MTT cell viability, HEP3B; type: cell-based; conditions: Homo sapiens, liver cancer, 48 h of drug treatment, average of three experiments
Source text: as §3

A549 = test: MTT cell viability, A549; type: cell-based; conditions: Homo sapiens, lung cancer, 48 h of drug treatment, average of three experiments
Source text: as §3

HCT-116 = test: MTT cell viability, HCT-116; type: cell-based; conditions: Homo sapiens, colon cancer, 48 h of drug treatment, average of three experiments
Source text: as §3

[5] = system: MRSA-2 (clinical isolate); test: MIC broth microdilution, MRSA-2; type: cell-based, Staphylococcus aureus; conditions: for MIC: Staphylococcus aureus, MRSA, read-out: MIC MRSA-2 (clinical isolate)
Description: as §1, §2

[6] = system: MRSA-3 (clinical isolate); test: MIC broth microdilution, MRSA-3; type: cell-based, Staphylococcus aureus; conditions: for MIC: Staphylococcus aureus, MRSA, read-out: MIC MRSA-3 (clinical isolate)
Description: as §1, §2

MRSA-ATCC700699 (VISA) = test: MIC broth microdilution, MRSA ATCC700699 (VISA); type: cell-based, Staphylococcus aureus; conditions: for MIC: Staphylococcus aureus, read-out: MIC MRSA-ATCC700699 (VISA)
Description: as §1, §2

MRSA-ATCC33592 = test: MIC broth microdilution, MRSA ATCC33592; type: cell-based, Staphylococcus aureus; conditions: for MIC: Staphylococcus aureus, read-out: MIC MRSA-ATCC33592
Description: as §1, §2

[7] = system: MRSA-1 (clinical isolate); test: MIC broth microdilution, MRSA-1; type: cell-based, Staphylococcus aureus; conditions: for MIC: Staphylococcus aureus, MRSA, read-out: MIC MRSA-1 (clinical isolate)
Description: as §1, §2

MRSA-ATCC33591 = test: MIC broth microdilution, MRSA ATCC33591; type: cell-based, Staphylococcus aureus; conditions: for MIC: Staphylococcus aureus, read-out: MIC MRSA-ATCC33591
Description: as §1, §2

[8] = overnight incubation, Mueller-Hinton broth
[9] = strain intermediately resistant to vancomycin, overnight incubation

CO/N=C(\C(=O)N[C@@H]1C(=O)N2C(C(=O)O)=C(COC(C)=O)CS[C@H]12)c1csc(N)n1 [Cefotaxime]
MIC (E. coli ATCC25922): 0.03 µg/mL (≈ 0.0659 µM)
MIC [1]: ≥ 1000 µg/mL
MIC Acinetobacter baumannii ATCC BAA1605 (carbapenem-resistant) [1]: 1000 µg/mL (≈ 2200 µM)
MIC [2]: 20 µg/mL (≈ 43.9 µM)
MIC [3]: 250 µg/mL (≈ 549 µM)
MIC [4]: > 1000 µg/mL

CO/N=C(\C(=O)N[C@@H]1C(=O)N2C(C(=O)O)=C(CSc3nc(=O)c(=O)[nH]n3C)CS[C@H]12)c1csc(N)n1 [Ceftriaxone]
MIC (E. coli ATCC25922): 0.03 µg/mL (≈ 0.0541 µM)
MIC [1]: ≥ 1000 µg/mL
MIC Acinetobacter baumannii ATCC BAA1605 (carbapenem-resistant) [1]: >1000 µg/mL
MIC [2]: 20 µg/mL (≈ 36.1 µM)
MIC [3]: 500 µg/mL (≈ 902 µM)
MIC [4]: > 1000 µg/mL

Fc1ccc(N/N=C2\C=C[C@@]3(CC2)CC[C@@H]2NCCc4c2n3c2ccccc42)cc1 [Compound 1b]
IC50 (HELA): > 10 µM
IC50 (MCF-7): 6.22 ± 0.16 µM
IC50 (HEP3B): 8 ± 0.07 µM
IC50 (A549): 10.25 ± 0.08 µM
IC50 (HCT-116): 6.43 ± 0.03 µM

Brc1ccc(N/N=C2\C=C[C@@]3(CC2)CC[C@@H]2NCCc4c2n3c2ccccc42)cc1 [Compound 1c]
IC50 (HELA): 5.3 ± 0.35 µM
IC50 (MCF-7): 2.75 ± 0.06 µM
IC50 (HEP3B): 4.21 ± 0.06 µM
MIC [5, 8]: 3.12 µg/mL (≈ 6.77 µM)
MIC [6, 8]: 3.12 µg/mL (≈ 6.77 µM)
IC50 (A549): 3.9 ± 0.04 µM
MIC (MRSA-ATCC700699 (VISA); [9]): 6.25 µg/mL (≈ 13.5 µM)
MIC (MRSA-ATCC33592; [8]): 6.25 µg/mL (≈ 13.5 µM)
MIC [7, 8]: 3.12 µg/mL (≈ 6.77 µM)
IC50 (HCT-116): 2.65 ± 0.05 µM
MIC (MRSA-ATCC33591; [8]): 6.25 µg/mL (≈ 13.5 µM)

FC(F)(F)c1ccc(N/N=C2\C=C[C@@]3(CC2)CC[C@@H]2NCCc4c2n3c2ccc(OCc3ccccc3)cc42)cc1 [Compound 1l]
MIC [5, 8]: 3.12 µg/mL (≈ 5.61 µM)
MIC [6, 8]: 3.12 µg/mL (≈ 5.61 µM)
MIC (MRSA-ATCC700699 (VISA); [9]): 3.12 µg/mL (≈ 5.61 µM)
MIC (MRSA-ATCC33592; [8]): 3.12 µg/mL (≈ 5.61 µM)
MIC [7, 8]: 1.56 µg/mL (≈ 2.8 µM)
MIC (MRSA-ATCC33591; [8]): 3.12 µg/mL (≈ 5.61 µM)

COC(=O)[C@@H]1Cc2c3n(c4ccccc24)[C@@]2(C=C/C(=N\Nc4ccc(C(F)(F)F)cc4)CC2)CC[C@@H]3N1 [Compound 1m]
MIC [5, 8]: 3.12 µg/mL (≈ 6.14 µM)
MIC [6, 8]: 3.12 µg/mL (≈ 6.14 µM)
MIC (MRSA-ATCC700699 (VISA); [9]): 6.25 µg/mL (≈ 12.3 µM)
MIC (MRSA-ATCC33592; [8]): 6.25 µg/mL (≈ 12.3 µM)
MIC [7, 8]: 3.12 µg/mL (≈ 6.14 µM)
MIC (MRSA-ATCC33591; [8]): 6.25 µg/mL (≈ 12.3 µM)

COC(=O)[C@H]1Cc2c3n(c4ccccc24)[C@@]2(C=C/C(=N\Nc4ccc(C(F)(F)F)cc4)CC2)CC[C@@H]3N1 [Compound 1n]
MIC [5, 8]: 3.12 µg/mL (≈ 6.14 µM)
MIC [6, 8]: 3.12 µg/mL (≈ 6.14 µM)
MIC (MRSA-ATCC700699 (VISA); [9]): 6.25 µg/mL (≈ 12.3 µM)
MIC (MRSA-ATCC33592; [8]): 6.25 µg/mL (≈ 12.3 µM)
MIC [7, 8]: 3.12 µg/mL (≈ 6.14 µM)
MIC (MRSA-ATCC33591; [8]): 6.25 µg/mL (≈ 12.3 µM)

C[C@@H](O)[C@H]1C(=O)N2C(C(=O)O)=C(S[C@@H]3CN[C@H](C(=O)N(C)C)C3)[C@H](C)[C@H]12 [Meropenem]
MIC (E. coli ATCC25922): < 0.02 µg/mL
MIC [1]: 12.5 µg/mL (≈ 32.6 µM)
MIC [2]: 0.6 µg/mL (≈ 1.56 µM)
MIC [3]: 25 µg/mL (≈ 65.2 µM)
MIC [4]: < 0.2 µg/mL

CN[C@H](CC(C)C)C(=O)N[C@H]1C(=O)N[C@@H](CC(N)=O)C(=O)N[C@H]2C(=O)N[C@H]3C(=O)N[C@H](C(=O)N[C@H](C(=O)O)c4cc(O)cc(O)c4-c4cc3ccc4O)[C@H](O)c3ccc(c(Cl)c3)Oc3cc2cc(c3O[C@@H]2O[C@H](CO)[C@@H](O)[C@H](O)[C@H]2O[C@H]2C[C@](C)(N)[C@H](O)[C@H](C)O2)Oc2ccc(cc2Cl)[C@H]1O [Vancomycin, reference compound]
MIC [5]: 1 µg/mL (≈ 0.69 µM)
MIC [6]: 1 µg/mL (≈ 0.69 µM)
MIC (MRSA-ATCC700699 (VISA)): 8 µg/mL (≈ 5.52 µM)
MIC MRSA-ATCC700699 (VISA) (MRSA-ATCC700699 (VISA); [9]): 8 * μg/mL
MIC (MRSA-ATCC33592): 1 µg/mL (≈ 0.69 µM)
MIC [7]: 1 µg/mL (≈ 0.69 µM)
MIC (MRSA-ATCC33591): 1 µg/mL (≈ 0.69 µM)

Colistin
MIC E. coli ATCC25922 (E. coli ATCC25922): 0.2 µg/mL
MIC Acinetobacter baumannii ATCC BAA1605 (carbapenem-resistant) [1]: 1.25 µg/mL
MIC Acinetobacter baumannii ATCC 19606 [2]: 1.25 µg/mL
MIC E. coli ATCC BAA2469 (NDM-1 carbapenem-resistant) [3]: 1.25 µg/mL
MIC E. coli CDC-AR-0346 (ESBL, colistin resistant) [4]: 6.25 µg/mL

Gentamicin [reference compound]
MIC MRSA-2 (clinical isolate) [5, 8]: 0.625 µg/mL
MIC MRSA-3 (clinical isolate) [6, 8]: 0.625 µg/mL
MIC E. coli ATCC25922 (E. coli ATCC25922): 0.625 µg/mL
MIC Acinetobacter baumannii ATCC BAA1605 (carbapenem-resistant) [1]: 125 µg/mL
MIC Acinetobacter baumannii ATCC 19606 [2]: 10 µg/mL
MIC MRSA-ATCC700699 (VISA) (MRSA-ATCC700699 (VISA); [9]): 500 µg/mL
MIC E. coli ATCC BAA2469 (NDM-1 carbapenem-resistant) [3]: >1000 µg/mL
MIC MRSA-ATCC33592 (MRSA-ATCC33592; [8]): >500 µg/mL
MIC E. coli CDC-AR-0346 (ESBL, colistin resistant) [4]: >1000 µg/mL
MIC MRSA-1 (clinical isolate) [7, 8]: 50 µg/mL
MIC MRSA-ATCC33591 (MRSA-ATCC33591; [8]): 2.5 µg/mL
